Measured values as given in publication PMC11544072 (Heliyon, 2024).

biological target: CYP154C7; assay: UV/Vis spectral titration, type I spin shift; type: binding, Streptomyces sp. PAMC26508

Point of comparison: `C[C@]12CCC(=O)C=C1CC[C@@H]1[C@@H]2CC[C@]2(C)C(=O)CC[C@@H]12` [androstenedione], Kd 0.201 ± 0.043 µM. Against it:
- C[C@]12CCC(=O)C=C1CC[C@@H]1[C@@H]2C(=O)C[C@@]2(C)[C@H]1CC[C@]2(O)C(=O)CO [cortisone] — 10-fold higher, 2 ± 0.34 µM
- C[C@]12CC[C@H]3[C@@H](CCC4=CC(=O)CC[C@@]43C)[C@@H]1CC[C@@H]2O [testosterone] — within error, 0.304 ± 0.07 µM
